From US12600714B2, “Substituted pyrazinecarboxamide compounds for treating diseases related to EGFR mutation” (WIGEN BIOMEDICINE TECHNOLOGY (SHANGHAI) CO., LTD., priority 2020, dated 2026)

The compounds below were run on EGFR (del19/T790M/C797S) (assay: HTRF inhibitory activity assay against EGFR (del19/T790M/C797S) enzyme).
Format: biochemical
Description: Inhibitory Activity Assay of the Compounds Disclosed Herein Against EGFR (del19/T790M/C797S), EGFR (L858R/T790M/C797S) or EGFR (WT) Enzymes
The inhibitory effects of the compounds against EGFR (del19/T790M/C797S), EGFR (L858R/T790M/C797S) or EGFR (WT) enzyme activity was determined by using HTRF. The procedures are as follows:
The WT or mutant EGFR proteins were incubated with a serially diluted compounds at 28° C. for 10 min followed by addition of biotin-labeled general tyrosine kinase (TK) substrate and ATP. The mixture was incubated at room temperature for 40 min for reaction. After the termination of the reaction, an Eu3+-Cryptate-labeled antibody against TK and streptavidin-XL665 were added and the mixture was incubated at room temperature for 60 min. The luminescences at 615 nm and 665 nm were detected and the ratio of 665/615 was calculated to quantify the level of TK substrate phosphorylation. Inhibition % and IC50 of the compounds were calculated relative to the control group.
For `CN1CCN(C2CCN(c3ccc(Nc4nc(NC5CCOCC5)c(N5CCCCC5)nc4C(N)=O)cc3)CC2)CC1` [compound 116, 3-((4-(4-(4-methylpiperazin-1-yl)piperidin-1-yl)phenyl)amino)-6-(piperidin-1-yl)-5-((tetrahydro-2H-pyran-4-yl)amino)pyrazine-2-carboxamide], the “EGFR (del19/T790M/C797S) inhibition (%) (0.3 nM compound)” value (shortened to “EGFR (del19/T790M/C797S) inhibition (%)”) was “+ (+ indicates an inhibition less than or equal to 20%)”. With `CC(C)Nc1nc(Nc2ccc(N3CCC(N4CCN(C)CC4)CC3)c(F)c2)c(C(N)=O)nc1-c1ccncc1` [compound 635] the “EGFR (del19/T790M/C797S) inhibition (%)” value was “+++ (+++ indicates an inhibition greater than 50%.)”. In the case of `CN1CCN(C2CCN(c3ccc(Nc4nc(NC5CCOCC5)c(-c5cccc(C#N)c5)nc4C(N)=O)cc3)CC2)CC1` [compound 47], the “EGFR (del19/T790M/C797S) inhibition (%)” value was “+ (+ indicates an inhibition less than or equal to 20%)”. In the case of `CN1CCN(C2CCN(c3ccc(Nc4nc(NC5CC6(COC6)C5)c(-c5ccncc5)nc4C(N)=O)cc3F)CC2)CC1` [compound 634], the “EGFR (del19/T790M/C797S) inhibition (%)” value was “+++ (+++ indicates an inhibition greater than 50%.)”. `NC(=O)c1nc(-c2ccccn2)c(NC2CCOCC2)nc1Nc1ccc(N2CCC(N3CCN(C4CC4)CC3)CC2)cc1` [compound 207] was tested, and the “EGFR (del19/T790M/C797S) inhibition (%)” value was “++ (++ indicates an inhibition from 20% to 50%)”. For `CN1CCN(C2CCN(c3ccc(Nc4nc(N[C@H]5CC[C@H](O)C5)c(-c5ccccc5)nc4C(N)=O)cc3)CC2)CC1` [compound 138, 5-(((1S,3S)-3-hydroxycyclopentyl)amino)-3-((4-(4-(4-methylpiperazin-1-yl)piperidin-1-yl)phenyl)amino)-6-phenylpyrazine-2-carboxamide], the “EGFR (del19/T790M/C797S) inhibition (%)” value was “++ (++ indicates an inhibition from 20% to 50%)”. In the case of `CN1CCN(C2CCN(c3ccc(Nc4nc(NC5CCOCC5)c(-c5ccc(Cl)cc5)nc4C(N)=O)cc3)CC2)CC1` [compound 65], the “EGFR (del19/T790M/C797S) inhibition (%)” value was “++ (++ indicates an inhibition from 20% to 50%)”. For `CC(C)Nc1nc(Nc2ccc(N3CCC(N4CCN(C)CC4)CC3)cc2)c(C(N)=O)nc1-c1ccnc2[nH]ccc12` [compound 609], the “EGFR (del19/T790M/C797S) inhibition (%)” value was “+++ (+++ indicates an inhibition greater than 50%.)”. `CN1CCN(C2CCN(c3ccc(Nc4nc(NC5CCCC5O)c(-c5cc[nH]n5)nc4C(N)=O)cc3F)CC2)CC1` (stereo not drawn) [compound 624] was tested, and the “EGFR (del19/T790M/C797S) inhibition (%)” value was “++ (++ indicates an inhibition from 20% to 50%)”. For `CN1CCN(C2CCN(c3ccc(Nc4nc(NC5CCOCC5)c(-c5ccccc5N)nc4C(N)=O)cc3)CC2)CC1` [compound 98], the “EGFR (del19/T790M/C797S) inhibition (%)” value was “+ (+ indicates an inhibition less than or equal to 20%)”. For `CN1CCN(C2CCN(c3ccc(Nc4nc(N[C@H]5C[C@@H](O)C5)c(-c5cc[nH]n5)nc4C(N)=O)cc3F)CC2)CC1` [compound 620], the “EGFR (del19/T790M/C797S) inhibition (%)” value was “++ (++ indicates an inhibition from 20% to 50%)”. `CN1CCN(C2CCN(c3ccc(Nc4nc(NC5CCOCC5)c(-c5ccc(S(C)(=O)=O)cc5)nc4C(N)=O)cc3)CC2)CC1` [compound 46] was tested, and the “EGFR (del19/T790M/C797S) inhibition (%)” value was “+ (+ indicates an inhibition less than or equal to 20%)”. For `CN1CCN(C2CCN(c3ccc(Nc4nc(NC5CCOCC5)c(-c5cccc(O)c5)nc4C(N)=O)cc3)CC2)CC1` [compound 43], the “EGFR (del19/T790M/C797S) inhibition (%)” value was “+ (+ indicates an inhibition less than or equal to 20%)”. In the case of `CN1CCN(C2CCN(c3ccc(Nc4nc(NC5CCOCC5)c(-c5ccccc5NS(C)(=O)=O)nc4C(N)=O)cc3)CC2)CC1` [compound 107], the “EGFR (del19/T790M/C797S) inhibition (%)” value was “+ (+ indicates an inhibition less than or equal to 20%)”. In the case of `CN1CCN(C2CCN(c3ccc(Nc4nc(NC5CCC5)c(-c5ccncc5)nc4C(N)=O)cc3F)CC2)CC1` [compound 639], the “EGFR (del19/T790M/C797S) inhibition (%)” value was “+++ (+++ indicates an inhibition greater than 50%.)”. For `CN1CCN(C2CCN(c3ccc(Nc4nc(NC5CC5)c(-c5cccc6[nH]ccc56)nc4C(N)=O)cc3F)CC2)CC1` [compound 531], the “EGFR (del19/T790M/C797S) inhibition (%)” value was “+++ (+++ indicates an inhibition greater than 50%.)”. In the case of `CN1CCN(C2CCN(c3ccc(Nc4nc(NC5CC6(COC6)C5)c(-c5ccncc5)nc4C(N)=O)cc3)CC2)CC1` [compound 633], the “EGFR (del19/T790M/C797S) inhibition (%)” value was “+++ (+++ indicates an inhibition greater than 50%.)”. With `CN1CCN(C2CCN(c3ccc(Nc4nc(N[C@H]5C[C@H](O)C5)c(-c5cc[nH]n5)nc4C(N)=O)cc3)CC2)CC1` [compound 615] the “EGFR (del19/T790M/C797S) inhibition (%)” value was “+++ (+++ indicates an inhibition greater than 50%.)”. `CN1CCN(C2CCN(c3ccc(Nc4nc(NC5CCOCC5)c(-c5ccccc5F)nc4C(N)=O)cc3)CC2)CC1` [compound 62] was tested, and the “EGFR (del19/T790M/C797S) inhibition (%)” value was “+ (+ indicates an inhibition less than or equal to 20%)”. In the case of `CN1CCN(C2CCN(c3ccc(Nc4nc(N[C@H]5C[C@H](O)C5)c(-c5cc[nH]n5)nc4C(N)=O)cc3F)CC2)CC1` [compound 621], the “EGFR (del19/T790M/C797S) inhibition (%)” value was “+++ (+++ indicates an inhibition greater than 50%.)”. In the case of `CN1CCN(C2CCN(c3ccc(Nc4nc(N5CCCCC5)c(-c5ccccc5)nc4C(N)=O)cc3)CC2)CC1` [compound 15], the “EGFR (del19/T790M/C797S) inhibition (%)” value was “+ (+ indicates an inhibition less than or equal to 20%)”. `CN1CCN(C2CCN(c3ccc(Nc4nc(NC5CCOC6(CC6)C5)c(-c5ccccn5)nc4C(N)=O)cc3)CC2)CC1` (stereo not drawn) [compound 263] was tested, and the “EGFR (del19/T790M/C797S) inhibition (%)” value was “++ (++ indicates an inhibition from 20% to 50%)”. `CN1CCN(C2CCN(c3ccc(Nc4nc(NC5CCCC5)c(-c5ccncc5)nc4C(N)=O)cc3)CC2)CC1` [compound 640] was tested, and the “EGFR (del19/T790M/C797S) inhibition (%)” value was “+++ (+++ indicates an inhibition greater than 50%.)”. With `CN1CCN(C2CCN(c3ccc(Nc4nc(O[C@@H]5CCOC5)c(-c5ccccc5)nc4C(N)=O)cc3)CC2)CC1` [compound 16] the “EGFR (del19/T790M/C797S) inhibition (%)” value was “+ (+ indicates an inhibition less than or equal to 20%)”. `CN1CCN(C2CCN(c3ccc(Nc4nc(N[C@@H]5CC[C@H](O)C5)c(-c5ccccc5)nc4C(N)=O)cc3)CC2)CC1` [compound 136, 5-(((1R,3S)-3-hydroxycyclopentyl)amino)-3-((4-(4-(4-methylpiperazin-1-yl)piperidin-1-yl)phenyl)amino)-6-phenylpyrazine-2-carboxamide] was tested, and the “EGFR (del19/T790M/C797S) inhibition (%)” value was “++ (++ indicates an inhibition from 20% to 50%)”. With `CN1CCN(C2CCN(c3ccc(Nc4nc(OCC(F)(F)F)c(-c5ccccc5)nc4C(N)=O)cc3)CC2)CC1` [compound 25] the “EGFR (del19/T790M/C797S) inhibition (%)” value was “+ (+ indicates an inhibition less than or equal to 20%)”. In the case of `CN1CCN(C2CCN(c3ccc(Nc4nc(NC5CCCC5O)c(-c5cc[nH]n5)nc4C(N)=O)cc3)CC2)CC1` (stereo not drawn) [compound 618], the “EGFR (del19/T790M/C797S) inhibition (%)” value was “++ (++ indicates an inhibition from 20% to 50%)”. `Cc1cc(Nc2nc(NC3CC4(CCOCC4)C3)c(-c3ccncc3)nc2C(N)=O)ccc1N1CCC(N2CCN(C)CC2)CC1` [compound 379] was tested, and the “EGFR (del19/T790M/C797S) inhibition (%)” value was “++ (++ indicates an inhibition from 20% to 50%)”. For `CN1CCN(C2CCN(c3ccc(Nc4nc(NC5CCCC5(C)O)c(-c5ccccc5)nc4C(N)=O)cc3)CC2)CC1` (stereo not drawn) [compound 8], the “EGFR (del19/T790M/C797S) inhibition (%)” value was “+ (+ indicates an inhibition less than or equal to 20%)”. For `CN1CCN(C2CCN(c3ccc(Nc4nc(N[C@H]5CCOC5)c(-c5ccncc5)nc4C(N)=O)cc3)CC2)CC1` [compound 644], the “EGFR (del19/T790M/C797S) inhibition (%)” value was “+++ (+++ indicates an inhibition greater than 50%.)”. For `CN1CCN(C2CCN(c3ccc(Nc4nc(NC5CCOCC5)c(-c5cccc(S(C)(=O)=O)c5)nc4C(N)=O)cc3)CC2)CC1` [compound 44], the “EGFR (del19/T790M/C797S) inhibition (%)” value was “+ (+ indicates an inhibition less than or equal to 20%)”. With `CN1CCN(C2CCN(c3ccc(Nc4nc(NC5CCOCC5)c(-c5ccccc5C(F)F)nc4C(N)=O)cc3)CC2)CC1` [compound 82] the “EGFR (del19/T790M/C797S) inhibition (%)” value was “+ (+ indicates an inhibition less than or equal to 20%)”. For `COc1ccccc1-c1nc(C(N)=O)c(Nc2ccc(N3CCC(N4CCN(C)CC4)CC3)cc2)nc1NC1CCOCC1` [compound 42], the “EGFR (del19/T790M/C797S) inhibition (%)” value was “+ (+ indicates an inhibition less than or equal to 20%)”. In the case of `CN1CCN(C2CCN(c3ccc(Nc4nc(NC5CCOCC5)c(-c5ccsc5)nc4C(N)=O)cc3)CC2)CC1` [compound 93], the “EGFR (del19/T790M/C797S) inhibition (%)” value was “++ (++ indicates an inhibition from 20% to 50%)”. With `CC(=O)Nc1cccc(-c2nc(C(N)=O)c(Nc3ccc(N4CCC(N5CCN(C)CC5)CC4)cc3)nc2NC2CCOCC2)c1` [compound 100] the “EGFR (del19/T790M/C797S) inhibition (%)” value was “+ (+ indicates an inhibition less than or equal to 20%)”. With `COc1ccc(-c2nc(C(N)=O)c(Nc3ccc(N4CCC(N5CCN(C)CC5)CC4)cc3)nc2NC2CCOCC2)cc1` [compound 45] the “EGFR (del19/T790M/C797S) inhibition (%)” value was “+ (+ indicates an inhibition less than or equal to 20%)”. For `CN1CCN(C2CCN(c3ccc(Nc4nc(NC5CCOCC5)c(C5=CCNC5)nc4C(N)=O)cc3)CC2)CC1` [compound 68], the “EGFR (del19/T790M/C797S) inhibition (%)” value was “+ (+ indicates an inhibition less than or equal to 20%)”. For `CN1CCN(C2CCN(c3ccc(Nc4nc(N[C@@H]5CCC[C@H]5O)c(-c5ccccc5)nc4C(N)=O)cc3)CC2)CC1` [compound 134], the “EGFR (del19/T790M/C797S) inhibition (%)” value was “++ (++ indicates an inhibition from 20% to 50%)”. For `CN(C)CCNc1nc(Nc2ccc(N3CCC(N4CCN(C)CC4)CC3)cc2)c(C(N)=O)nc1-c1ccccc1` [compound 28], the “EGFR (del19/T790M/C797S) inhibition (%)” value was “+ (+ indicates an inhibition less than or equal to 20%)”.
